# Assays:
# Interstitial collagenase = biological target: T1, Interstitial collagenase (Homo sapiens, UniProt P03956); assay: Inhibitory activity against matrix metalloprotease (MMP-1)
# T1 sequence (P03956 whole entry): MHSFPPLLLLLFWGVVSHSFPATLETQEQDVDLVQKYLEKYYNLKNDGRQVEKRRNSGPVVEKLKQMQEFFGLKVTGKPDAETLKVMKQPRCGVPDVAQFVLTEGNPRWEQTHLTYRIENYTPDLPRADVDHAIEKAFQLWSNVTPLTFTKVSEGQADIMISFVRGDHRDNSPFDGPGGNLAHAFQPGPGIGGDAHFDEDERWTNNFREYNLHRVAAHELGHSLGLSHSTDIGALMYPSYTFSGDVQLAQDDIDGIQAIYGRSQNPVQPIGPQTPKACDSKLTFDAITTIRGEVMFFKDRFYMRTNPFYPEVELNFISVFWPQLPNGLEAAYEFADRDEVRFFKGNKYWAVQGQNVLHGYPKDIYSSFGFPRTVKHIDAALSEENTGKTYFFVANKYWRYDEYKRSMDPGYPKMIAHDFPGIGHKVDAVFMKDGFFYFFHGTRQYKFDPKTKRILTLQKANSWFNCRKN
# Stromelysin-1 [1] = biological target: T2, Stromelysin-1 (Homo sapiens, UniProt P08254); assay: Inhibition of matrix metalloprotease (MMP-3)
# Target sequence in this assay (P08254 whole entry): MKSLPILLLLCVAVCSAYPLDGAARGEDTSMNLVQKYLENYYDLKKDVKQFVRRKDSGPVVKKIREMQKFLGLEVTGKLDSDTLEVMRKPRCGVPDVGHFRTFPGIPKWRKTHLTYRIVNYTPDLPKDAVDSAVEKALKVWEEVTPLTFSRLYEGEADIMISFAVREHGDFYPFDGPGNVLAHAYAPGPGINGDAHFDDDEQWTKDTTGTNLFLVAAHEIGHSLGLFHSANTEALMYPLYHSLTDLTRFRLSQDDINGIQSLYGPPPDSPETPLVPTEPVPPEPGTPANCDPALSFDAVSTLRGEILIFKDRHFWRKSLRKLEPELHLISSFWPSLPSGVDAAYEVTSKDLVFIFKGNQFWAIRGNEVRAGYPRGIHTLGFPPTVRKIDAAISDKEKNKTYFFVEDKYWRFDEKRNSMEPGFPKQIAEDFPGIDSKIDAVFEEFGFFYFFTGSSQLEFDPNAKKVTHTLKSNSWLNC
# [2] = biological target: Matrix metalloproteinase-9 (Homo sapiens, UniProt P14780); assay: Inhibitory activity against matrix metalloprotease (MMP-9)
# Stromelysin-1 [3] = biological target: T2, Stromelysin-1; assay: Inhibition of matrix metalloprotease (MMP-3) at 10 uM
# Target sequence in this assay (P08254 100-477 limits assumed): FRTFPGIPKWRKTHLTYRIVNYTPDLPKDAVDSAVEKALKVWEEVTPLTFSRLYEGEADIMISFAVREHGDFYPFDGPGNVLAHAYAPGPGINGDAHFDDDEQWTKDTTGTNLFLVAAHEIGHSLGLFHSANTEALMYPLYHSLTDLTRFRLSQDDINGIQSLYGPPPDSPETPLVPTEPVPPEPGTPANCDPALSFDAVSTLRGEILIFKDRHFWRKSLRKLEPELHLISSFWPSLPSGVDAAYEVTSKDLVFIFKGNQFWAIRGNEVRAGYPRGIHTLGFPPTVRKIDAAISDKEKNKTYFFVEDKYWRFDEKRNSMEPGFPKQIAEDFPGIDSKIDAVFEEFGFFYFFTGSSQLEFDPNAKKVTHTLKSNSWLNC
# Sequence of Matrix metalloproteinase-9 (P14780 whole entry): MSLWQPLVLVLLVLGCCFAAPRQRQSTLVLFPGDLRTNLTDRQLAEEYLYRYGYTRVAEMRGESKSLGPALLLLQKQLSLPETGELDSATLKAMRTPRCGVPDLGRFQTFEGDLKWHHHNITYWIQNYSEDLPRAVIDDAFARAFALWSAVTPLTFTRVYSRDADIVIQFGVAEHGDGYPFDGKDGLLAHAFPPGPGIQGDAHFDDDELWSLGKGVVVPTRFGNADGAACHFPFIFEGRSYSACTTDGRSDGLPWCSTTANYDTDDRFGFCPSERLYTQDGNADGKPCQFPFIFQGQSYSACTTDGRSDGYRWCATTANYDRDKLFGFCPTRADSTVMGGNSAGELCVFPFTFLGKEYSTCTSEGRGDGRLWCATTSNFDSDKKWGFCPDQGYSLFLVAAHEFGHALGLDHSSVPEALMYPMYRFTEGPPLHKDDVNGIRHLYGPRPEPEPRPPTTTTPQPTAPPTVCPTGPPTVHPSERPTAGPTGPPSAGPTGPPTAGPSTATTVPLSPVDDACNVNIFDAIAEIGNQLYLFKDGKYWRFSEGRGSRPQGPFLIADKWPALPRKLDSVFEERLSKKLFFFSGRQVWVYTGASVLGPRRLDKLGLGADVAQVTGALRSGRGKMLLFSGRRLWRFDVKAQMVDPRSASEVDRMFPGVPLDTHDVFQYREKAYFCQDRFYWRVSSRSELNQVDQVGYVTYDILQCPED
SMILES,IC50 (Interstitial collagenase),IC50 (Stromelysin-1 [1]),IC50 [2],inhibition (Stromelysin-1 [3])
CNC(=O)[C@H](Cc1ccccc1)NC(=O)[C@H](Cc1cc2ccccc2o1)[C@H](O)C(=O)NO,< 100 nM,–,–,–
"CC(C)(C)[C@H](NC(=O)C(Cc1ccc2ccccc2c1)C(O)C(=O)NO)C(N)=O (single isomer, unassigned)",> 10000 nM,> 10000 nM,640 nM,–
NC(=O)[C@H](Cc1ccccc1)NC(=O)[C@H](Cc1nc2ccccc2s1)[C@H](O)C(=O)NO,500 nM,–,–,–
"NC(=O)[C@H](Cc1ccccc1)NC(=O)C(Cc1ccc2ccc(O)cc2c1)C(O)C(=O)NO (single isomer, unassigned)",> 10000 nM,–,–,–
NC(=O)[C@H](Cc1ccccc1)NC(=O)[C@H](Cc1ccc2cc(F)ccc2c1)[C@H](O)C(=O)NO,> 10000 nM,3000 nM,850 nM,–
"CNC(=O)[C@@H](NC(=O)C(Cc1ccc2ccccc2c1)C(O)C(=O)NO)C(C)(C)C (single isomer, unassigned)",> 1000 nM,–,–,–
NC(=O)[C@H](Cc1ccccc1)NC(=O)[C@H](Cc1ccc2ccc(F)cc2c1)[C@H](O)C(=O)NO,> 10000 nM,–,–,–
CC(C)(C)[C@H](NC(=O)C(C[C@@H]1CCc2ccccc2C1)[C@H](O)C(=O)NO)C(N)=O (stereo not given in full),1800 nM,–,410 nM,83%
CC(C)(C)[C@H](NC(=O)[C@H](Cc1ccc2ccc(F)cc2c1)[C@H](O)C(=O)NO)C(N)=O,> 10000 nM,–,–,–
O=C(C[C@@H](Cc1ccc2ccccc2c1)C(=O)N[C@@H](Cc1ccccc1)C(=O)NCc1ccccc1)NO,> 1000 nM,–,–,–
"NC(=O)[C@H](Cc1ccccc1)NC(=O)C(Cc1ccc2ccccc2c1)C(O)C(=O)NO (single isomer, unassigned)",> 10000 nM,–,–,–
"CC(C)(C)[C@H](NC(=O)C(Cc1cnc2ccccc2c1)C(O)C(=O)NO)C(N)=O (single isomer, unassigned)",5000 nM,3000 nM,190 nM,–
CC(C)(C)[C@H](NC(=O)C(C[C@H]1CCc2ccccc2C1)[C@H](O)C(=O)NO)C(N)=O (stereo not given in full),800 nM,230 nM,230 nM,–
NC(=O)[C@H](Cc1ccccc1)NC(=O)[C@H](Cc1cc2ccccc2s1)[C@H](O)C(=O)NO,140 nM,–,–,–
"CNC(=O)[C@H](Cc1ccccc1)NC(=O)C(Cc1ccc2ccccc2c1)C(O)C(=O)NO (single isomer, unassigned)",> 1000 nM,–,–,–

# Reference: ChEMBL document CHEMBL1131875, “Selective inhibition of low affinity IgE receptor (CD23) processing: P1' bicyclomethyl substituents” (Bioorg Med Chem Lett, 1999)
